Experimental data taken from patent US11236056B2, “Small molecules and methods of reducing injuries caused by radiation or chemicals” (priority 2019, dated 2022).
≈ marks a conversion by molar mass, not a printed value. Where two headings read alike, the source gives them in different places.

Legend:
NIH-Swiss female mice [1] = assay: Radioprotection against TBI induced mortality, 30 min pretreatment (Example 2); type: in vivo; conditions: 80 mg/kg i.p. 30 min prior to 7.5 Gy TBI
Experimental: NIH-Swiss female mice were divided into 5 groups (8 mice/group). Thirty min prior to 7.5 Gy TBI, mice were treated by i.p. injection with UTS-1401, -1402, and -1403 (80 mg/kg each) or vehicle, respectively. Mice in control group were not irradiated. Definition of “death” used in this study was when a mouse actually died or when a mouse lost 20% or more of its bodyweight.
FIG. 2 is a graph of the radioprotection of UTS-1401, -1402, and -1403 determined according to Example 2.

[2] = Solubility determination of UTS-14 compounds; type: physicochemical; conditions: thermodynamic from solid
Experimental: If the compound was not dissolved, more solvent was added and the solution was watched again after one day. This procedure was continued until the compound was completely dissolved, after which the solubility was calculated.

NIH-Swiss female mice [3] = assay: Drug dose-dependent radioprotection against TBI induced mortality, 30 min pretreatment (Example 3); type: in vivo; conditions: 25 or 75 mg/kg i.p. 30 min prior to 7.5 Gy TBI
Experimental: NIH-Swiss female mice were divided into 4 groups (8 mice/group). Thirty min prior to 7.5 Gy TBI, mice were treated by i.p. injection with UTS-1401 (0, 2, or 6 mg/mL or 0, 25, or 75 mg/kg) or vehicle, respectively. Mice in control group were not irradiated. Definition of “death” used in this study was when a mouse actually died or when a mouse lost 20% or more of its bodyweight.
FIG. 3 is a graph of the dose-dependent effect of UTS-1401 on TBI induced mortality in NIH-Swiss mice determined according to Example 3.

NIH-Swiss female mice [4] = assay: Radioprotection compared with amifostine, 45 min before or after TBI (Example 4); type: in vivo
Experimental: NIH-Swiss female mice were divided into 8 groups (10 mice/group). (A) Forty-five min prior to 7.5 Gy TBI, mice were treated by i.p. injection with UTS-1401 (75 mg/kg), amifostine (75 mg/kg) or vehicle, respectively. Mice in control group were not irradiated. (B) Same procedure as in (A) except that mice were treated by testing agents forty-five min after 7.5 Gy TBI.
FIG. 4 is a graph of the effects of UTS-1401 and amifostine on TBI induced in NIH-Swiss mice mortality administered 45 minutes before TBI determined according to Example 4.
FIG. 5 is a graph of the effects of UTS-1401 and amifostine on TBI induced in NIH-Swiss mice mortality administered 45 minutes after TBI determined according to Example 4.

NIH Swiss male mice = assay: Radioprotection, 24 hr pretreatment, male mice (Example 5); type: in vivo
Experimental: NIH Swiss male mice were studied for the radioprotective effects of UTS-1401 at 50, 100, and 150 mg/kg respectively by i.p. injection at 24 hr before TBI at 6.5, 7.5, and 8.5 Gy. […] These observations indicate that UTS-1401 is effective as a radioprotector for male NIH Swiss mice against TBI of both 7.5 and 8.5 Gy.
FIG. 6 is a graph of the effect of UTS-1401 on TBI induced mortality in NIH-Swiss mice administered at 100 mg/kg determined according to Example 5.

NIH Swiss female mice = assay: Radioprotection, 24 hr pretreatment, female mice (Example 5); type: in vivo
Experimental: Only 8.5 Gy results are summarized here.
FIG. 7 is a graph of the effect of UTS-1401 on TBI induced mortality in NIH-Swiss mice administered at 150 mg/kg determined according to Example 5.

H9C2 cardiomyocytes = assay: Protection against doxorubicin-induced damage on cardiomyocytes in vitro (MTT assay); type: cell-based; conditions: 30 min pretreatment before DOX, assayed 3 days later
Experimental: Briefly, myocardiocytes H9C2 were cultured in high glucose DMEM with 10% bovine calf serum and 10,000 cells per well of cardiomyocytes were treated by DOX with and without the 30 min pretreatment of UTS-1401. The survival rates were assayed by MTT assay 3 days later.
FIG. 8 is a graph showing protection of UTS-1401 on H9C2 cardiomyocytes against DOX-induced determined according to Example 6.

[5] = water, rm temp, read-out: solubility in water
[6] = 75 mg/kg i.p. 45 min after 7.5 Gy TBI
[7] = 75 mg/kg i.p. 45 min before 7.5 Gy TBI
[8] = 50, 100, and 150 mg/kg 24 hr before 8.5 Gy TBI

In the case of `CS(=O)(=O)Cc1cc(C(=O)O)no1` [UTS-1403], the “survival of irradiated mice” value (NIH-Swiss female mice [1]) is reported as “increased the survival”, the solubility ([2]; Hank's Balanced Salt Solution (HBSS), saline or isotonic, read-out: solubility in Hank's Balanced Salt Solution (HBSS)) is reported as roughly 15.8 mg/mL and the solubility [2, 5] is reported as roughly 9.1 mg/mL (≈ 44.3 mM).

For `CSCc1cc(C(=O)O)no1` [UTS-1401], the “survival of irradiated mice” value (NIH-Swiss female mice [1]) was “increased the survival”, the “survival rate of mice” value (NIH-Swiss female mice [3]) was “increased the survival rate of mice in a dose-dependent manner” and the “survival rate of mice” value (NIH-Swiss female mice [4]; [6]) was “significantly increased the survival rate”. The “survival rate of mice” value (NIH-Swiss female mice [4]; [7]) was “increased the survival rate”, the “radioprotection as compared with amifostine” value (NIH-Swiss female mice [4]; 75 mg/kg i.p. 45 min before or after 7.5 Gy TBI) was “better radioprotection as compared with amifostine” and the survival rates (NIH Swiss male mice; 50, 100, 150 mg/kg i.p. 24 hr before 7.5 Gy TBI) was “greatly increased”. For the same compound, the “dose dependence of survival rates” value (NIH Swiss male mice; 50, 100, 150 mg/kg i.p. 24 hr before 7.5 and 8.5 Gy TBI) was “drug-dose dependent”, the survival rates (NIH Swiss male mice; 50, 100, 150 mg/kg i.p. 24 hr before 8.5 Gy TBI) was “greatly increased” and the “day from which average body wt of surviving pretreated mice started to recover” value (NIH Swiss male mice; i.p. 24 hr before TBI) was roughly 20 days. The “dose dependence of radioprotective effects” value (NIH Swiss female mice; [8]) was “essentially the same for all 3 doses”, the “radioprotective effects / mortality” value (NIH Swiss female mice; [8]) was “significant radioprotective effects and reduced the mortality” and the optimal dose (NIH Swiss female mice; 24 hr before 8.5 Gy TBI) was “around 50 mg/kg”. For the same compound, the “protection of cardiomyocytes (survival rates by MTT)” value (H9C2 cardiomyocytes) was “protected cardiomyocytes significantly”, the solubility ([2]; saline or isotonic, saline, 37° C., read-out: solubility in saline at 37° C.) was 12 mg/mL (≈ 69.3 mM) and the solubility [2, 5] was roughly 9.5 mg/mL (≈ 54.9 mM).

In the case of `NCCCNCCSP(=O)(O)O` [amifostine, Amifostine, reference compound], the “survival rate of mice” value (NIH-Swiss female mice [4]; [6]) is reported as “did not increase the survival rate” and the “survival rate of mice” value (NIH-Swiss female mice [4]; [7]) is reported as “increased the survival rate”.

For `C[S+]([O-])Cc1cc(C(=O)O)no1` (stereo not shown) [UTS-1402], the “survival of irradiated mice” value (NIH-Swiss female mice [1]) was “increased the survival” and the solubility [2, 5] was roughly 16 mg/mL (≈ 84.6 mM).
